For 21 compounds, EC50, Activity and Ratio EC50 results are on record in ChEMBL document CHEMBL4229431, “Discovery of novel selective GPR120 agonists with potent anti-diabetic activity by hybrid design” (Bioorg Med Chem Lett, 2018).

A word on the pEC50: it is the negative decadic logarithm of the EC50, by convention in mol/L.

pEC50: −log10 of the molar value. Calls of active or inactive are those of the source. The rule behind the calls is not given here. A value given as a limit tells only on which side of the number the result lay.

The target in test [1] is Free fatty acid receptor 1 (Homo sapiens, UniProt O14842). The experiment in a line: Agonist activity at human GPR40 expressed in CHO cells assessed as increase in intracellular calcium level by Fluo-4-AM dye based assay. Format: functional, cell-based. A general note: A change in cytosolic calcium serves as a functional read-out for many receptors and channels.
Free fatty acid receptor 1, sequence (O14842 whole entry): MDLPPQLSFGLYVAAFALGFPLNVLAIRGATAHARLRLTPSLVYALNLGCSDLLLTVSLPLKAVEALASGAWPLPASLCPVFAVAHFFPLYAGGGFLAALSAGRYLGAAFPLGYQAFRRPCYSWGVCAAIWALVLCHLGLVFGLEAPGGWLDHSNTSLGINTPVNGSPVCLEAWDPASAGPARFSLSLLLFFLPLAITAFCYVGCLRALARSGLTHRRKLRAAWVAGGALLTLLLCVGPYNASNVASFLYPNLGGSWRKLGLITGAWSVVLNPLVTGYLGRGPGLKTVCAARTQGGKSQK
Test [2] addresses T1, Free fatty acid receptor 4 (Homo sapiens, UniProt Q5NUL3).
T1 sequence (Q5NUL3 whole entry): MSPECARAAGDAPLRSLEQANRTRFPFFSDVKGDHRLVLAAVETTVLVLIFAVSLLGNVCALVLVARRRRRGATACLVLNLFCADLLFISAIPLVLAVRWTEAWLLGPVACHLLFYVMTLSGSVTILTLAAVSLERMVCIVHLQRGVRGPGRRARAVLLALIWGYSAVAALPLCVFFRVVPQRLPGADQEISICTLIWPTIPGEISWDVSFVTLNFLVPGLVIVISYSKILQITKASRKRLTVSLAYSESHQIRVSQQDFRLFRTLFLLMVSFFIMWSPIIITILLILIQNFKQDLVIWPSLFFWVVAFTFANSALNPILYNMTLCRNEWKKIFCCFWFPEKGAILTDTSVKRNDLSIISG
As to the kind of experiment: Agonist activity at human GPR120 expressed in CHO cells assessed as increase in intracellular calcium level by Fluo-4-AM dye based assay. In kind it is functional, cell-based.

Test [3] addresses T2, Free fatty acid receptor 4 (Homo sapiens) (UniProt Q5NUL3).
T2 sequence (whole entry): T1 sequence (Q5NUL3 whole entry)
The experiment in a line: Agonist activity at human GPR120 expressed in CHO cells assessed as increase in intracellular calcium level at 1 uM by Fluo-4-AM dye based assay. In kind it is functional, cell-based.

For test [4], the target named is T1, Free fatty acid receptor 4. The experiment in a line: Agonist activity at human GPR120. Format: functional.
The species entered for another test is Homo sapiens. The experiment in a line: Selectivity ratio of EC50 for agonist activity at human GPR40 expressed in CHO cells to EC50 for agonist activity at human GPR120 expressed in CHO cells. Format: cell-based.
Test [5] deals with Mus musculus. The experiment in a line: Hypoglycemic activity in ICR mouse assessed as reduction in blood glucose level at 10 mg/kg, po pretreated for 60 mins followed by glucose challenge measured up to 120 mins by OGTT. In kind it is functional, organism-based.
Test [6] deals with Mus musculus. The experiment in a line: Hypoglycemic activity in ICR mouse assessed as reduction in blood glucose level pretreated orally for 60 mins followed by glucose challenge measured up to 120 mins by OGTT. In kind it is functional, organism-based.

As to `CO[C@H]1C[C@H](Oc2cc(F)c(F)c(-c3cc(C)c(OCCCC(=O)O)c(C)c3)c2)C1`, the pEC50 in test [1] was less than 4.00; in test [2], 6.06.

With `CO[C@H]1C[C@H](Oc2cc(F)c(F)c(-c3cc(F)c(S(=O)(=O)CCCC(=O)O)c(F)c3)c2)C1`, the result in test [3] was inactive.

As to `CC(C)Nc1ccccc1-c1cc(F)c(OCCCC(=O)O)c(F)c1`, the results for the pEC50 in test [1], in test [2] and in test [4] were less than 4.00, 5.83 and 5.70 to 6.70, respectively.

Regarding `CO[C@H]1C[C@H](Oc2cc(F)c(F)c(-c3cc(F)c(OCCCC(=O)NS(C)(=O)=O)c(F)c3)c2)C1`, the result in test [3] was inactive.

As to `CO[C@H]1C[C@H](Oc2cc3c(c(-c4cc(F)c(OCCCC(=O)O)c(F)c4)c2)OCO3)C1`, the values for the negative logarithm of the EC50 (pEC50) in test [1] and in test [2] were less than 4.00 and 6.66, respectively.

As to `CO[C@H]1C[C@H](Oc2cc(F)c(F)c(-c3cc(F)c(OCCCC(=O)OCCNC(C)=O)c(F)c3)c2)C1`, the outcome in test [3] was inactive.

As for `COc1cc(F)c(F)c(-c2cc(F)c(OCCCC(=O)O)c(F)c2)c1`, the negative-log EC50 (pEC50) in test [1] is 4.61; in test [2], 7.16. In addition, the Ratio EC50 in the test filed under Homo sapiens stood at 354.

Take `CO[C@H]1C[C@H](Oc2cc(F)c(F)c(-c3cc(F)c(OCCCC(=O)NS(=O)(=O)c4ccccc4)c(F)c3)c2)C1`: the outcome in test [3] was inactive.

As to `Cc1c(COc2cc(F)c(F)c(-c3cc(F)c(OCCCC(=O)O)c(F)c3)c2)cccc1-c1ccccc1`, the result in test [3] was inactive.

Take `CO[C@H]1C[C@H](Oc2cc(F)c(F)c(-c3ccc4c(c3)CC[C@H](CCC(=O)O)O4)c2)C1`: the results for the pEC50 in test [1] and in test [2] were less than 4.00 and 6.33, respectively. The result in the test on Mus musculus [5] was Active.

As to `CO[C@H]1C[C@H](Oc2cc(F)c(F)c(-c3cc(F)c(OCCCCCCC(=O)O)c(F)c3)c2)C1`, the values for the pEC50 in test [1] and in test [2] were 5.46 and less than 4.00, respectively.

For the compound `CO[C@H]1C[C@H](Oc2cc(F)c(F)c(-c3cc(F)c(SCCCC(=O)O)c(F)c3)c2)C1`, the pEC50 in test [1] was less than 4.00; in test [2], 6.46.

Turning to `O=C(O)CCCOc1c(F)cc(-c2cc(OC3CCOCC3)cc(F)c2F)cc1F`, the negative-log EC50 (pEC50) in test [1] was less than 4.00; in test [2], 5.56.

With `CO[C@H]1C[C@H](Oc2cc(F)c(F)c(-c3cc(F)c(OCCC(C)(C)C(=O)O)c(F)c3)c2)C1`, the pEC50 was less than 4.00 in test [1] and 5.30 in test [2].

Regarding `CO[C@H]1C[C@H](Oc2cc(F)c(F)c(-c3cc(F)c(OCCCCCC(=O)O)c(F)c3)c2)C1`, the negative-log EC50 (pEC50) was 4.96 in test [1] and 6.20 in test [2]. Further, in the test listed under Homo sapiens, the Ratio EC50 came to 17.

For the compound `CO[C@H]1C[C@H](Oc2cc(F)c(F)c(-c3cc(F)c(OCCCC(=O)O)c(F)c3)c2)C1`, the pEC50 is less than 4.00 in test [1] and 7.03 in test [2]. Besides, the Activity entry in the test on Mus musculus [6] is “Dose-dependent effect”.

For the compound `COc1cc(-c2cc(O[C@H]3C[C@H](OC)C3)cc(F)c2F)cc(OC)c1OCCCC(=O)O`, the outcome in test [3] was inactive.

As to `CO[C@H]1C[C@H](Oc2cc(F)c(F)c(-c3cc(F)c(OCCCCCCCC(=O)O)c(F)c3)c2)C1`, the negative logarithm of the EC50 (pEC50) in test [1] was 5.46; in test [2] it was 4.62. Besides, the Ratio EC50 in the test filed under Homo sapiens is less than 1.

Take `CO[C@H]1C[C@H](Oc2cc(F)c(F)c(-c3cc(F)c(OCC(=O)O)c(F)c3)c2)C1`: the outcome in test [3] was inactive.

For `CO[C@H]1C[C@H](Oc2ccc([N+](=O)[O-])c(-c3cc(F)c(OCCCC(=O)O)c(F)c3)c2)C1`, the pEC50 in test [1] was 4.53; in test [2], 5.83. In the test listed under Homo sapiens, the Ratio EC50 stood at 20.

Turning to `CO[C@H]1C[C@H](Oc2cc(F)c(F)c(-c3cc(F)c(OCCCCC(=O)O)c(F)c3)c2)C1`, the figures for the pEC50 in test [1] and in test [2] were 4.16 and 6.73, respectively. For the same compound, the Ratio EC50 in the test listed under Homo sapiens was 370.
